From patent publication US7070965B1, “Small molecule anticancer compounds and related production process” (priority 1998, dated 2006)

Tests used:
K562 leukemia cells = assay: Apoptosis morphology, transmission electron microscope; format: cell-based, human; details: 60 μg/ml, 4 hours
Description: Human cancer cell lines DU-145 (prostate cancer), K562 (leukemia), HCT116 (colon cancer), H1688 (lung cancer), SUN423 (hepatocarcinoma), MCF7 (breast cancer), CRL-1687 (pancreatic cancer), and SUN-1 (gastric cancer) were obtained from American Type Culture Collection (ATCC). 30 ml blood was collected from a health person and normal peripheral mononuclear cells were separated by Ficoll separation solution (Sigma). All cells were maintained in RPMI 1640, DMEM, or McCoy medium supplemented with 10% FCS, […] streptomycin and 100 u/ml penicillin. Normal human peripheral mononuclear cells, K562 and SUN-1 were suspended cells. After spinning at 1,500 RPM for 5 min, supernatants were discharged and cells were resuspended and expended in fresh medium. The other tumor cell lines were adherent cells and were dispersed with 0.05% trypsin/0.01% EDTA (Irvine Scientific, CA) for expansion. Cells were seeded in T75 flasks at 2×10^6 cells/flask in culture medium supplemented with 10% fetal bovine serum and incubated overnight at 37° C. with 5% CO2. The adherent cells attached to the plate were striped with disposable cell scrapers (Fisher Scientific) after treated either with 1% iso-C15, anteiso-C15 or control solution for 1, 2, 4, 8 and 24 hours and then combined with respective float cells. […]

[1] = test system: K562 human leukemia cells; assay: Flow cytometry annexin V / PI apoptosis detection; format: cell-based; details: 30 μg/ml, 24 hours
Description: (§1) Human cancer cell lines DU-145 (prostate cancer), K562 (leukemia), HCT116 (colon cancer), H1688 (lung cancer), SUN423 (hepatocarcinoma), MCF7 (breast cancer), CRL-1687 (pancreatic cancer), and SUN-1 (gastric cancer) were obtained from American Type Culture Collection (ATCC). 30 ml blood was collected from a health person and normal peripheral mononuclear cells were separated by Ficoll separation solution (Sigma). All cells were maintained in RPMI 1640, DMEM, or McCoy medium supplemented with 10% FCS, […] streptomycin and 100 u/ml penicillin. Normal human peripheral mononuclear cells, K562 and SUN-1 were suspended cells. After spinning at 1,500 RPM for 5 min, supernatants were discharged and cells were resuspended and expended in fresh medium. The other tumor cell lines were adherent cells and were dispersed with 0.05% trypsin/0.01% EDTA (Irvine Scientific, CA) for expansion. Cells were seeded in T75 flasks at 2×10^6 cells/flask in culture medium supplemented with 10% fetal bovine serum and incubated overnight at 37° C. with 5% CO2. The adherent cells attached to the plate were striped with disposable cell scrapers (Fisher Scientific) after treated either with 1% iso-C15, anteiso-C15 or control solution for 1, 2, 4, 8 and 24 hours and then combined with respective float cells. Cells were then prepared for flow cytometry analysis, in situ cell death detection, DNA fragmentation and Western blot assay followed the preparation methods for each assay. Cell pellets treated for 2 and 4 hr with either iso-C15 or control were also stored at −70° C. for future studies of gene regulation.
(§2) A flow cytometer (FACScan) with Consort 30 software for gating analysis (Becton Dickinson, San Jose, Calif.) was used. The Apoptosis Detection kit (R&D Systems) was used to quantitatively determine the percentage of cells undergoing apoptosis by virtue of their ability to bind annexin V and exclude propidium iodide (PI). Cells were washed in cold PBS twice and resuspended in binding buffer. Fluorescent-labeled annexin V and PI were added to the cells. The cells undergoing apoptosis, expressing phosphotidyiserine on the outer leaflet of cell membranes, would bind annexin V. The cells in later stage of apoptosis or necrosis, with a compromised cell membrane, would allow PI to bind to the cellular DNA. The resulting cells were immediately analyzed by flow cytometer equipped with a single laser emitting excitation light at 488 nm. The annexin V and PI generated signals can be detected in signal detector FL1 and FL2, respectively. […]

normal human PBLs = assay: Flow cytometry annexin V / PI apoptosis detection; format: cell-based; details: 60 μg/ml, 24 hours
Description: as §1, §2

SNU-1 cells = assay: In situ cell death detection (TUNEL, fluorescence microscopy); format: cell-based, human; details: 60 μg/ml, 8 hours
Source text: (§3) In Situ Cell Death Detection Kit, POD (Mannheim Boehringer GmbH) was used to detect the individual apoptotic cells. Cleavage of genomic DNA during apoptosis may yield double-stranded, low molecular weight DNA fragments as well as single strand breaks in high molecular weight DNA. Those DNA strand breaks can be identified by labeling free 3′-OH termini with modified nucleotides in an enzymatic reaction. In this kit terminal deoxynucleotidyl transferase (TdT) is used to label free 3′-OH ends in genomic DNA with fluorescein-dUTP. The incorporated fluorescein is visualized under fluorescence microscope directly. The incorporated fluorescein can also bind to anti-fluorescein antibody POD and be detected by substrate reaction. Stained cells can be analyzed under light microscope.
(§4) Four human tumor cell lines, K-562 human leukemia, SNU-1 human gastric carcinoma cell lines, MCF-7 human breast adenocarcinoma and H1688 human small cell lung carcinoma cell lines, as well as Human PBLs were treated with iso-C15 (60 μg/ml).
SNU-1 cells treated with iso-C15 for 8 hours were added with TUNEL-reaction mixture and incubated 60 min at 37° C. After washing with PBS for three times, cell morphology was analyzed directly under fluorescence microscopy.

H1688 cancer cells = assay: In situ cell death detection, POD; format: cell-based, human; details: 60 μg/ml, 8 hours
Source text: as §3, §4
(§5) H1688, K-562 and DU145 human cancer cells and normal human PBLs were added with POD and incubated 30 min at 37° C., washed three times with PBS, then reacted with substrate AEC and incubated for 10 min at room temperature. The cells were analyzed under light microscope. […] It is evidenced that iso-C15 induces apoptosis of cancer cells but not normal human cells.

K-562 leukemia cells = assay: In situ cell death detection, POD; format: cell-based, human; details: 60 μg/ml, 2 and 4 hours
Source text: as §3, §4, §5

[2] = test system: human prostate carcinoma DU145; assay: Orthotopic nude mice model of human prostate carcinoma DU145; format: in vivo; details: for Mean tumor weight / TIR (tumor inhibition rate): oral once a day
Description: 13-methyltetradecanoic acid (iso-C15) was chemically synthesized in the inventor's laboratory, as described in Example 5, infra, (purity of 99.8%) was prepared by dissolving in NaOH solution and then in 0.35% Tween 80 with pH7.5.
Total of 24 male athymic BALB/c nude mice between 4 and 5 weeks of age were bred and maintained in specific pathogen free condition.
Human prostate carcinoma DU145 tumor was implanted and maintained subcutaneously in the flank of athymic nude mice. Prior to orthotopic implantation, the tumor was harvested in log phase. The peripheral tumor tissue was collected and minced to small pieces of one cubic millimeter each.
The mice were anesthetized for surgical orthotopic implantation. A small incision was made along the midline of the lower abdomen. After proper exposure of the bladder and prostate, the capsule of the prostate was opened and three pieces of DU145 tumor fragments were inserted into the capsule. The capsule was then closed using 8-0 suture, and the abdomen was closed using a 6-0 surgical suture.
The mice bearing orthotopic DU145 were randomly divided into control and test groups of eight mice each at the second day after tumor implantation. The iso-C15 prepared above at doses 35 and 70 mg/kg and PBS were administered by gavage once a day in low dose and high dose test groups and control group, respectively, for […].
All the mice were sacrificed by CO2 inhalation at day-40 after the start of treatment. The weights of primary tumors and bodies were measured. Tissue samples of the primary tumors were processed through standard procedures of hematoxylin and eosin staining for microscopic examination.
The tumor inhibition rates (TIR) were determined by comparing the mean tumor weight of the test groups (T) with that of the control group (C) and expressed as a (C)−T)/C percentage, and were analyzed by Student's test for statistical significance.

Structure (SMILES): CC(C)CCCCCCCCCCCC(=O)O [iso-C15, 13-methyltetradecanoic acid]
- morphological changes indicative of apoptosis (K562 leukemia cells): exhibits typical apoptotic feature
- FL1/FL2 pattern (annexin V / PI), apoptosis [1]: the majority of the cells were undergoing apoptosis
- FL1/FL2 pattern (annexin V / PI), effect on normal lymphocytes (normal human PBLs): no significant effects
- apoptotic cells, TUNEL fluorescence (SNU-1 cells): Several yellow fluorescent spots of apoptotic cells were noted
- apoptotic cells stained, POD (H1688 cancer cells): apoptotic H1688 cancer cells (stained red) were found
- apoptotic cells stained, POD (K-562 leukemia cells): some cells started apoptosis (stained red) 2 hours after treatment
- Mean tumor weight ([2]; 35 mg/kg): 493.25 mg
- TIR (tumor inhibition rate) ([2]; 35 mg/kg): 54.8%
- Mean tumor weight ([2]; 70 mg/kg): 168.00 mg
- TIR (tumor inhibition rate) ([2]; 70 mg/kg): 84.6%
- signs of toxicity (body weight curve, histology slides) ([2]; 35 and 70 mg/kg oral): no signs of toxicity
- mice in which the implanted tumor did not grow ([2]; high dose, 70 mg/kg, eight mice per group): four
